Experimental data reported in patent US4769378A, “Indenopyrimidine aromatase inhibitors” (Eli Lilly and Company, priority 1986, dated 1988).
Read-outs that look alike come from different tables or passages of the source. Values belong to the molecule of their own block, whether it stands above or below them.

Legend:
[1] = biological target: T1, aromatase (Rattus norvegicus, UniProt P22443); experiment: Aromatase inhibition in the rat ovarian microsome assay; type: biochemical; conditions: substrate (androstenedione) concentration 0.1 μM; rat ovarian microsomes; read-out: EC50 (concentration of compound required to achieve 50% inhibition of aromatase activity)
T1 construct: ovarian microsomes are obtained from rats treated with pregnant mares serum gonadotropin; from tissue; host or cells: rat ovary microsomes (rats treated with pregnant mares serum gonadotropin)
T1 sequence (P22443 1-508): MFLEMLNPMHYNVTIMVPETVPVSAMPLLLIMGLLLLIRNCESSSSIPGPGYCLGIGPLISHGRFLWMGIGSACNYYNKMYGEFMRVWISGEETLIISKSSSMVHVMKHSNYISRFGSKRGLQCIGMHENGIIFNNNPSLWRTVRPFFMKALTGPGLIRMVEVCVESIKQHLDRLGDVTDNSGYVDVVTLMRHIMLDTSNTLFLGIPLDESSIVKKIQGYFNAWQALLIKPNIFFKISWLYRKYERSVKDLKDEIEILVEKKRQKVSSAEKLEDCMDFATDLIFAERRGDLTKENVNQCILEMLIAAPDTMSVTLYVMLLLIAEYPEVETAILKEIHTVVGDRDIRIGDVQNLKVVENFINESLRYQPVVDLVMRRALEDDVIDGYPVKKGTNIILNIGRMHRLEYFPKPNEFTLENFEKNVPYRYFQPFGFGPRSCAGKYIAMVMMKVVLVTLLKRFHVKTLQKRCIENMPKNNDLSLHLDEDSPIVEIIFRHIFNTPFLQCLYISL
Protocol: In this test system, ovarian microsomes are obtained from rats treated with pregnant mares serum gonadotropin. Test compounds are added to reaction vials containing 0.1 μM 4-androstene-3,17-dione, 100,000 dpm 1,2[^3 H]-androstenedione, the microsomes and a NADPH generating system. The concentrations of the inhibitors tested ranged between 5 and 10000 nM. […] Potency is determined based on the concentration of inhibitor in nM required to produce a 50% inhibition of enzyme activity (EC50) when the concentration of substrate (androstenedione) is 0.1 μM.

[2] = test system: Estrogen synthesis (aromatization); experiment: Estrogen Synthesis Inhibition in Rats; type: in vivo, immature female Wistar rats; conditions: Rattus norvegicus, po, 168 h, gavage; for response vs control in vivo at 3 mg/kg: 3 mg/kg × 7 days; for response vs control in vivo at 30 mg/kg: 30 mg/kg × 7 days;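 on Uterine Wt. %: 100% equals the stimulated control's weight gain over the unstimulated control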
Protocol: By virtue of their ability to inhibit the enzyme aromatase, the compounds of this invention are able to inhibit the synthesis of estrogens in mammals, thereby making the compounds useful in the treatment of estrogen-dependent diseases, such as breast cancer.
Immature female Wistar rats (45-55 grams) were divided into control and test groups of 2-8 animals each. Test compounds were administered for seven days daily by gavage in corn oil. Control animals received corn oil without the test compound. Beginning on the fourth day of the test, all animals treated with the test compound and one half of the control animals were given a subcutaneous injection of 1.0 mg of testosterone propionate in corn oil. The remaining control animals received only an equivalent volume of corn oil. On the seventh day of the test, rats treated with testosterone propionate were injected subcutaneously with 100 μCi of [^3 H]-testosterone in 50 μl of saline-ethanol (3:1).
After two hours, the animals were killed by decapitation. Uteri were isolated, trimmed of extraneous connective tissue, and weighed. […] In the control animals treated with testosterone propionate, estrogens produced by aromatization stimulated the uterus resulting in an increase in weight.
Ovaries from rats treated with [^3 H]-testosterone were excised, cleaned of extraneous tissue, and homogenized in 2.5 ml of a 1.0 mM potassium phosphate buffer containing 3.0 mM MgCl2.6H2 O, 320 mM sucrose, and 0.25% Triton X-100 (polyethylene glycol p-isooctyl phenyl ether, Rohm and Haas) at pH 6.5. The ovarian steroids were extracted with 1.5 ml of 9:1 toluene/ethanol to which had been added 25 to 100 mcg each of unlabelled estradiol, estriol, and estrone, and approximately 1000 dpm of [^14 C]-estradiol. The samples were vortexed, centrifuged at 500×g for 10 minutes, and the organic phase was transferred to a conical vial. Two additional extractions were performed on the residue in the same way. The pooled organic extracts were evaporated for subsequent thin-layer chromatography.
Ovarian proteins were precipitated by the addition of 5.0 ml of ethanol to the remaining aqueous phase. After an overnight incubation at 4° C., the samples were centrifuged at 1500×g for 10 minutes. The supernatant was discarded and the pellet was dissolved in 0.3 N potassium hydroxide. Protein was determined according to the method of Bradford, Analytical Biochemistry, 72, 248 (1976).
The organic residue from each above extraction was redissolved in 9:1 dichloromethane/methanol. The solution of each sample was applied to separate silica gel thin layer chromatography plates which contained a fluorescent indicator. The plates were developed the first dimension with 160:38:1.5:0.5 dichloromethane/ethyl acetate/methanol/acetic acid to within 3 cm of the top of the plate. After air-drying, the plate was developed in the second dimension with 180:19:1 dichloromethane/methanol/ammonium hydroxide. The plate was air-dried and viewed under 254 nm UV light.
The visible spots were marked and the plates were sprayed with primulin (0.001% in 4:1 acetone/water) according to the method of Wright, J. Chromatography, 59, 220 (1971) which allowed for the identification of additional steroids under 365 nm UV light. The spots were scraped from the plate using a glass wool plugged Pasteur pipet attached to a vacuum line. The steroids were eluted directly into scintillation vials by the addition of 0.2 ml of dichloromethane followed by two washes each of 2.0 ml of methanol. The organic solvent was evaporated and 10.0 ml of scintillation fluid (Beckman Ready Solv-NA) was added to the vials. Samples were analyzed by liquid scintillation spectrometry and the corrections were made based on the recoveries of the [^14 C]-steroid.
In Table 2, values for uterine weight are expressed as the respective weights of drug treated (DT), unstimulated corn oil control (UC), and stimulated corn oil control (SC) according to the calculation %=100 (DT-UC)/(SC-UC). […]

[3] = 100 (DT-UC)/(SC-UC), read-out: Uterine Wt. %
[4] = ovaries, percent of testosterone-treated controls, read-out: % steroid concentration, estradiol
[5] = ovaries, percent of testosterone-treated controls, read-out: % steroid concentration, estrone

SMILES: COc1ccc2c(c1)C(O)(c1ccc(Cl)cc1)c1cncnc1-2 (centres unmarked) [Example 20, 5-(4-chlorophenyl)-7-methoxy-5H-indeno[1,2-d]pyrimidin-5-ol]
- EC50 [1]: 0.42 µM

SMILES: Clc1ccc(C2(Cl)c3ccc(Cl)cc3-c3ncncc32)cc1 (centres unmarked) [Example 27, 5,8-dichloro-5-(4-chlorophenyl)-5H-indeno[1,2-d]pyrimidine]
- EC50 [1]: 0.072 µM

SMILES: FC1(c2ccc(Cl)cc2)c2ccc(Cl)cc2-c2ncncc21 (centres unmarked) [Example 28, 8-chloro-5-(4-chlorophenyl)-5-fluoro-5H-indeno[1,2-d]pyrimidine]
- EC50 [1]: 0.035 µM

SMILES: Fc1ccc2c(c1)C(c1ccccc1F)c1cncnc1-2 (centres unmarked) [Example 17, 7-fluoro-5-(2-fluorophenyl)-5H-indeno[1,2-d]pyrimidine]
- EC50 [1]: 0.75 µM

SMILES: CC(=O)NC1(c2ccc(Cl)cc2)c2ccc(Cl)cc2-c2ncncc21 (centres unmarked) [Example 23, N-[8-chloro-5-(4-chlorophenyl)-5H-indeno[1,2-d]pyrimidin-5-yl]acetamide]
- EC50 [1]: 0.265 µM

SMILES: OC1(c2ccc(F)cc2)c2ccccc2-c2ncncc21 (centres unmarked) [Example 21, 5-(4-fluorophenyl)-5H-indeno[1,2-d]pyrimidin-5-ol]
- response vs control in vivo at 3 mg/kg [2, 3]: 46.4%
- response vs control in vivo at 3 mg/kg [2, 4]: 14.5%
- response vs control in vivo at 3 mg/kg [2, 5]: 83.8%
- response vs control in vivo at 30 mg/kg [2, 3]: 17.9%
- response vs control in vivo at 30 mg/kg [2, 4]: 8.8%
- response vs control in vivo at 30 mg/kg [2, 5]: 71.3%
- EC50 [1]: < 0.05 µM

SMILES: Fc1ccc2c(c1)-c1ncncc1C2c1ccc(C(F)(F)F)cc1 (centres unmarked) [Example 5, 8-fluoro-5-[4-(trifluoromethyl)phenyl]-5H-indeno[1,2-d]pyrimidine]
- response vs control in vivo at 3 mg/kg [2, 3]: 47.3%
- response vs control in vivo at 30 mg/kg [2, 3]: 22.8%
- EC50 [1]: 0.05 µM

SMILES: Clc1ccc(C2c3ccccc3-c3ncncc32)cc1Cl (centres unmarked) [Example 11, 5-(3,4-dichlorophenyl)-5H-indeno[1,2-d]pyrimidine]
- EC50 [1]: < 0.05 µM

SMILES: Clc1ccc(Cl)c(C2c3ccccc3-c3ncncc32)c1 (centres unmarked) [Example 10, 5-(2,5-dichlorophenyl)-5H-indeno[1,2-d]pyrimidine]
- EC50 [1]: 0.084 µM

SMILES: Fc1ccccc1C1c2ccccc2-c2ncncc21 (centres unmarked) [Example 14, 5-(2-fluorophenyl)-5H-indeno[1,2-d]pyrimidine]
- EC50 [1]: 0.086 µM

SMILES: Clc1ccc2c(c1)-c1ncncc1C2c1ccccc1 (centres unmarked) [Example 3, 8-chloro-5-phenyl-5H-indeno[1,2-d]pyrimidine]
- EC50 [1]: 0.021 µM

The next lines start with results.

- EC50 [1]: 0.061 µM
SMILES: COc1ccc2c(c1)C(c1ccc(F)cc1)c1cncnc1-2 (centres unmarked) [Example 13, 5-(4-fluorophenyl)-7-methoxy-5H-indeno[1,2-d]pyrimidine]

- EC50 [1]: < 0.05 µM
SMILES: Fc1ccc(C2c3ccccc3-c3ncncc32)cc1 (centres unmarked) [Example 15, 5-(4-fluorophenyl)-5H-indeno[1,2-d]pyrimidine]

- EC50 [1]: 0.05 µM
SMILES: OC1(c2ccccc2Cl)c2ccc(Cl)cc2-c2ncncc21 (centres unmarked) [Example 22, 8-chloro-5-(2-chlorophenyl)-5H-indeno[1,2-d]pyrimidin-5-ol]
- response vs control in vivo at 3 mg/kg [2, 3]: 70%
- response vs control in vivo at 3 mg/kg [2, 4]: 79.4%
- response vs control in vivo at 3 mg/kg [2, 5]: 73.4%
- response vs control in vivo at 30 mg/kg [2, 3]: 57.4%
- response vs control in vivo at 30 mg/kg [2, 4]: 40.8%
- response vs control in vivo at 30 mg/kg [2, 5]: 90.1%

- EC50 [1]: 0.027 µM
SMILES: Fc1ccc(C2c3ccc(C(F)(F)F)cc3-c3ncncc32)cc1 (centres unmarked) [Example 4, 5-(4-fluorophenyl)-8-(trifluoromethyl)-5H-indeno[1,2-d]pyrimidine]
- response vs control in vivo at 3 mg/kg [2, 3]: -14.3%
- response vs control in vivo at 30 mg/kg [2, 3]: -35.5%

- EC50 [1]: 0.026 µM
SMILES: OC1(c2ccc(Cl)cc2)c2ccc(Cl)cc2-c2ncncc21 (centres unmarked) [Example 18, 8-chloro-5-(4-chlorophenyl)-5H-indeno[1,2-d]pyrimidin-5-ol]
- response vs control in vivo at 3 mg/kg [2, 3]: 30.4%
- response vs control in vivo at 3 mg/kg [2, 4]: 16.8%
- response vs control in vivo at 3 mg/kg [2, 5]: 89%
- response vs control in vivo at 30 mg/kg [2, 3]: -7.7%
- response vs control in vivo at 30 mg/kg [2, 4]: 7.5%
- response vs control in vivo at 30 mg/kg [2, 5]: 77%

- EC50 [1]: < 0.05 µM
SMILES: COc1ccc2c(c1)-c1ncncc1C2c1cccc(Cl)c1 (centres unmarked) [Example 16, 5-(3-chlorophenyl)-8-methoxy-5H-indeno[1,2-d]pyrimidine]

- EC50 [1]: 0.128 µM
SMILES: COc1ccc2c(c1)C(c1ccc(Cl)cc1)c1cncnc1-2 (centres unmarked) [Example 12, 5-(4-chlorophenyl)-7-methoxy-5H-indeno[1,2-d]pyrimidine]

- EC50 [1]: 0.255 µM
SMILES: OC1(c2ccc(Cl)cc2Cl)c2ccccc2-c2ncncc21 (centres unmarked) [Example 19]
- response vs control in vivo at 3 mg/kg [2, 3]: 69.6%
- response vs control in vivo at 3 mg/kg [2, 4]: 78.3%
- response vs control in vivo at 3 mg/kg [2, 5]: 116%
- response vs control in vivo at 30 mg/kg [2, 3]: 42.8%
- response vs control in vivo at 30 mg/kg [2, 4]: 60%
- response vs control in vivo at 30 mg/kg [2, 5]: 75.4%

- EC50 [1]: 0.5 µM
SMILES: CC(=O)NC1(c2ccc(Cl)cc2Cl)c2ccccc2-c2ncncc21 (centres unmarked) [Example 25, N-[5-(2,4-dichlorophenyl)-5H-indeno[1,2-d]pyrimidin-5-yl]acetamide]

- EC50 [1]: 0.063 µM
SMILES: Clc1ccc(C2c3ccccc3-c3ncncc32)c(Cl)c1 (centres unmarked) [Example 8, 5-(2,4-dichlorophenyl)-5H-indeno[1,2-d]pyrimidine]

- EC50 [1]: 0.118 µM
SMILES: ClC1(c2ccccc2)c2ccccc2-c2ncncc21 (centres unmarked) [Example 26, 5-chloro-5-phenyl-5H-indeno[1,2-d]pyrimidine]

- EC50 [1]: 0.069 µM
SMILES: CC(=O)NC1(c2ccc(F)cc2)c2ccccc2-c2ncncc21 (centres unmarked) [Example 24, N-[5-(4-fluorophenyl)-5H-indeno[1,2-d]pyrimidin-5-yl]acetamide]
- response vs control in vivo at 3 mg/kg [2, 3]: 32.3%
- response vs control in vivo at 3 mg/kg [2, 4]: 43.2%
- response vs control in vivo at 3 mg/kg [2, 5]: 71.9%
- response vs control in vivo at 30 mg/kg [2, 3]: 23.2%
- response vs control in vivo at 30 mg/kg [2, 4]: 19.2%
- response vs control in vivo at 30 mg/kg [2, 5]: 59.9%

- EC50 [1]: < 0.05 µM
SMILES: Fc1cccc(C2c3ccccc3-c3ncncc32)c1 (centres unmarked) [Example 9, 5-(3-fluorophenyl)-5H-indeno[1,2-d]pyrimidine]

- EC50 [1]: 0.084 µM
SMILES: c1ccc(C2c3ccccc3-c3ncncc32)cc1 (centres unmarked) [Example 7, 5-phenyl-5H-indeno[1,2-d]pyrimidine]
